Reference: paper PMC7435877 (Molecules, 2020)
Read-outs that look alike come from different tables or passages of the source.

Columns and labels:
[1] = tested on: BALB/3T3; assay: In vitro antiproliferative activity, SRB assay, normal fibroblasts BALB/3T3; format: cell-based; settings: normal murine embryonic fibroblast BALB/3T3, 72 h, mean ± SD
[2] = tested on: LoVo; assay: In vitro antiproliferative activity, SRB assay, LoVo; format: cell-based, human; settings: for IC50: 72 h, read-out: Antiproliferative activity IC50, LoVo
[3] = tested on: LoVo/DX; assay: In vitro antiproliferative activity, SRB assay, doxorubicin-resistant LoVo/DX; format: cell-based, human; settings: for Resistance index (RI): RI = IC50 LoVo/DX / IC50 LoVo; for IC50: 72 h
[4] = tested on: A549; assay: In vitro antiproliferative activity, SRB assay, A549; format: cell-based, human; settings: for IC50: read-out: Antiproliferative activity IC50, A549
[5] = tested on: MCF-7; assay: In vitro antiproliferative activity, SRB assay, MCF-7; format: cell-based, human; settings: for IC50: read-out: Antiproliferative activity IC50, MCF-7
[6] = tested on: A549, MCF-7, LoVo, and LoVo/DX cells; assay: In vitro antiproliferative activity, SRB assay, summary over the tumor cell lines tested; format: cell-based; settings: Homo sapiens, read-out: IC50, span over all tumor cell lines tested
Excerpt: . Detailed information concerning antiproliferation assay can be found in Supplementary Materials. […]
neutralized with 4M NaOH to pH~10 and extracted four times with EtOAc. The organic layers were combined, washed with brine, dried over Na2SO4, filtered off and evaporated under reduced pressure. The residue was purified using column flash chromatography (silica gel; DCM/MeOH, 20/1 v/v) and next lyophilized from dioxane to give the pure product 3 as a yellow solid with a yield of 73%.
In vitro antiproliferative activity
Cell lines and culturing conditions
Four human cancer cell lines and one murine normal cell line were used to evaluate antiproliferative […]
adenocarcinoma (MCF-7), human colon adenocarcinoma cell lines sensitive and resistant to doxorubicin (LoVo) and (LoVo/DX) respectively, and normal murine embryonic fibroblast cell line (BALB/3T3). The A549 cell line was purchased from the European Collection of Authenticated Cell Cultures (ECACC, Salisbury, UK). The MCF-7, LoVo and LoVo/DX cell lines was purchased from American Type Culture Collection (ATCC, Manassas, VA, USA). All the cell lines are maintained in the Institute of Immunology and Experimental Therapy (IIET), Wroclaw, Poland. […]

[7] = Homo sapiens, LoVo/DX, read-out: Antiproliferative activity IC50, LoVo/DX, doxorubicin-resistant subline LoVo/DX, 72 h, SRB, mean ± SD
[8] = read-out: Antiproliferative activity IC50, LoVo/DX, doxorubicin-resistant subline LoVo/DX, SRB, mean ± SD

SMILES	Resistance index (RI) [3]	IC50 ([2]; Homo sapiens, LoVo) [nM]	IC50 ([4]; Homo sapiens, A549, 72 h) [nM]	IC50 ([5]; Homo sapiens, MCF7, 72 h) [nM]	IC50 [3, 7] [nM]	also measured
N.N.[Cl][Pt][Cl] [Cisplatin, cisplatin, reference compound]	0.9					IC50 [1]: 3970 ± 995 nM; IC50 ([2]; human colon adenocarcinoma LoVo, SRB, mean ± SD): 5460 ± 1410 nM; IC50 ([3]; doxorubicin-resistant subline LoVo/DX, SRB, mean ± SD, read-out: Antiproliferative activity IC50, LoVo/DX): 5010 ± 1560 nM; IC50 ([4]; human lung adenocarcinoma A549, 72 h, SRB, mean ± SD): 4920 ± 1850 nM; IC50 ([5]; human breast adenocarcinoma MCF-7, 72 h, SRB, mean ± SD): 5810 ± 2610 nM
CNc1ccc2c(cc1=O)C(NC(C)=O)CCc1cc(OC)c(OC)c(OC)c1-2 (stereo not shown) [Compound 2, 10-N-methylaminocolchicine]		1.2 ± 0.2	7.2 ± 1.3			
CNc1ccc2c(cc1=O)[C@@H](N)CCc1cc(OC)c(OC)c(OC)c1-2 [Compound 3, N-deacetyl-10-methylamino-10-demethoxycolchicine]		7.4 ± 2.7	8.6 ± 3.9	9.8 ± 4.5		
CCN[C@H]1CCc2cc(OC)c(OC)c(OC)c2-c2ccc(NC)c(=O)cc21 [Compound 4]	8.5	7.3 ± 2.5	9.4 ± 3.2	8.7 ± 3.3	62 ± 7.5	
CCCN[C@H]1CCc2cc(OC)c(OC)c(OC)c2-c2ccc(NC)c(=O)cc21 [Compound 5]	3.5	5 ± 0.1	10.5 ± 0.7	10.4 ± 0.6	17.2 ± 6.7	
CCCCN[C@H]1CCc2cc(OC)c(OC)c(OC)c2-c2ccc(NC)c(=O)cc21 [Compound 6]	1.7	7.8 ± 1.3	8.1 ± 2.6	8.7 ± 3.1	13.3 ± 5.8	
CCCCCCCCCCN[C@H]1CCc2cc(OC)c(OC)c(OC)c2-c2ccc(NC)c(=O)cc21 [Compound 7]	2.1	46.6 ± 15.5	88.4 ± 3.2	75.2 ± 10.8	99.5 ± 35.5	
CNc1ccc2c(cc1=O)[C@@H](NCC(C)C)CCc1cc(OC)c(OC)c(OC)c1-2 [Compound 8]	1.1	7.8 ± 1	9.6 ± 1.3	9.7 ± 1.5	≤ 10	IC50 [3, 8]: 8.5 ± 1.1 nM
CNc1ccc2c(cc1=O)[C@@H](NCCO)CCc1cc(OC)c(OC)c(OC)c1-2 [Compound 9]	23.6	5.6 ± 1.5	9.2 ± 2.2	10.1 ± 1.2	132 ± 37.5	
CNc1ccc2c(cc1=O)[C@@H](NCCC#N)CCc1cc(OC)c(OC)c(OC)c1-2 [Compound 10]	25.9	2 ± 0.6	9 ± 1	7.5 ± 0.7	51.5 ± 8.6	
CNc1ccc2c(cc1=O)[C@@H](NCCCCl)CCc1cc(OC)c(OC)c(OC)c1-2 [Compound 11]	10.0	1.3 ± 0.3	8.4 ± 2.2	7.6 ± 2.8	12.8 ± 3.3	
CNc1ccc2c(cc1=O)[C@@H](NCCC(F)(F)F)CCc1cc(OC)c(OC)c(OC)c1-2 [Compound 12]	3.6	2.3 ± 1.3	9.5 ± 0.2	9 ± 1.7	8.2 ± 0.6	
CNc1ccc2c(cc1=O)[C@@H](NCc1ccccc1)CCc1cc(OC)c(OC)c(OC)c1-2 [Compound 13]	7.0	0.9 ± 0.4	4.6 ± 1.8	7.3 ± 4.4	6 ± 0.8	
CNc1ccc2c(cc1=O)[C@@H](NCc1ccccc1Cl)CCc1cc(OC)c(OC)c(OC)c1-2 [Compound 14, N-(2-chlorobenzyl)-10-methylaminocolchicine]		0.1 ± 0.02	1.1 ± 0.7	0.7 ± 0.4	1.6 ± 1	IC50 [6]: 0.1 to 1.6 nM; Selectivity index (SI), LoVo/DX ([3]; SI = IC50 BALB/3T3 / IC50 LoVo/DX): 2.8; Potency relative to unmodified colchicine 1, LoVo/DX ([3]; times more potent than 1 towards LoVo/DX): approx. 440 times; Selectivity index (SI), A549 ([4]; SI = IC50 BALB/3T3 / IC50 A549): 4.1; Selectivity index (SI), MCF-7 ([5]; SI = IC50 BALB/3T3 / IC50 MCF-7): 6.1
CNc1ccc2c(cc1=O)[C@@H](NCc1ccc(O)cc1)CCc1cc(OC)c(OC)c(OC)c1-2 [Compound 15]	13.9	5.2 ± 0.5	8.9 ± 1.4	8.5 ± 0.9	72.2 ± 12.5	
CNc1ccc2c(cc1=O)[C@@H](NCc1ccncc1)CCc1cc(OC)c(OC)c(OC)c1-2 [Compound 16]	9.3	5.2 ± 1.9	8.9 ± 1.7	9.6 ± 1.8	48.1 ± 14.5	
CNc1ccc2c(cc1=O)[C@@H](NCc1cccs1)CCc1cc(OC)c(OC)c(OC)c1-2 [Compound 17]	8.9	0.9 ± 0.3	9.4 ± 0.5	9.3 ± 0.6	≤ 10	Selectivity index (SI), LoVo ([2]; SI = IC50 BALB/3T3 / IC50 LoVo): > 3; IC50 [3, 8]: 7.9 ± 1 nM
